Source: patent US4172891A, “Cephalosporins” (Takeda Chemical Industries, Inc., priority 1976, dated 1979)
In brackets after ≈: the same amount, converted by molar mass. Where two headings read alike, the source gives them in different places.

How the values were obtained:
[1] = test system: P. vulgaris IFO 3988; experiment: Minimum Inhibitory Concentration, agar dilution, P. vulgaris IFO 3988; type: cell-based; conditions: Proteus vulgaris
Text: (§1) […]. | Minimum Inhibitory Concentrations (mcg/ml, agar dilution)

[2] = test system: K. pneumoniae GN 3835; experiment: Minimum Inhibitory Concentration, agar dilution, K. pneumoniae GN 3835; type: cell-based; conditions: Klebsiella pneumoniae
Text: as §1

[3] = test system: Escherichia coli O-111; experiment: Comparative protection test on infected mice; type: in vivo; conditions: O111, sc, 168 h; male ICR/SLC mice infected intraperitoneally with Escherichia coli O-111; single subcutaneous dose immediately after challenge; 7 days observation
Text: (§2) Following each example is a tabulation of the minimal inhibitory concentrations (MIC) of the present compound [I] obtained in accordance with the particular example against several representative gram-negative bacteria and the corresponding concentrations of cephaloridine [7-(2-thienylacetamido)-3-(1-pyridyl)methyl-3-cephem-4-carboxylic acid betaine] and cefazolin [sodium 7-(1H-tetrazol-1-yl)acetamido-3-(2-methyl-1,3,4-thiadiazol-5-yl)thiomethyl-3-cephem-4-carboxylate], both of which are typical cephalosporins commercially available and clinically accepted nowadays [The New England Journal of Medicine 294, 24 (1976) and Journal of Pharmaceutical Science 64, 1899 (1975)]. There are also shown the effective doses of the typical compounds of this invention on the mice infected with Escherichia coli in comparison with that of cephaloridine.
Comparative protection tests of the compounds of this
invention and cephaloridine on infected mice
*Test animals: male mice (ICR/SLC) 5 mice per group per single dose
Infection: intraperitoneally with Escherichia coli O-111
Administration: a single subcutaneous dose immediately after challenge
Observation period: 7 days

[4] = test system: P. mirabilis GN 4359; experiment: Minimum Inhibitory Concentration, agar dilution, P. mirabilis GN 4359; type: cell-based; conditions: Proteus mirabilis
Text: as §1

[5] = test system: P. rettgeri 8(TNO 336); experiment: Minimum Inhibitory Concentration, agar dilution, P. rettgeri 8(TNO 336); type: cell-based, Proteus rettgeri; conditions: Providencia rettgeri
Text: as §1

[6] = test system: P. rettgeri GN 4733; experiment: Minimum Inhibitory Concentration, agar dilution, P. rettgeri GN 4733; type: cell-based, Proteus rettgeri; conditions: Providencia rettgeri
Text: as §1

[7] = test system: Cit. freundii GN 99; experiment: Minimum Inhibitory Concentration, agar dilution, Cit. freundii GN 99; type: cell-based; conditions: Citrobacter freundii
Text: as §1

[8] = test system: E. coli NIHJ; experiment: Minimum Inhibitory Concentration, agar dilution, E. coli NIHJ; type: cell-based; conditions: Escherichia coli, read-out: Minimum Inhibitory Concentration
Text: as §1

[9] = test system: Ent. cloacae IFO 12937; experiment: Minimum Inhibitory Concentration, agar dilution, Ent. cloacae IFO 12937; type: cell-based; conditions: Enterobacter cloacae
[10] = test system: E. coli O-111; experiment: Minimum Inhibitory Concentration, agar dilution, E. coli O-111; type: cell-based; conditions: Escherichia coli, O111; E. coli O-111; agar dilution; read-out: Minimum Inhibitory Concentration
Text: as §2
Minimum Inhibitory Concentrations (mcg/ml, agar dilution)

[11] = test system: K. pneumoniae DT; experiment: Minimum Inhibitory Concentration, agar dilution, K. pneumoniae DT; type: cell-based; conditions: Klebsiella pneumoniae, read-out: Minimum Inhibitory Concentration
Text: as §1

[12] = test system: Cit. freundii GN 1706; experiment: Minimum Inhibitory Concentration, agar dilution, Cit. freundii GN 1706; type: cell-based; conditions: Citrobacter freundii
Text: as §1

[13] = test system: E. coli T-7; experiment: Minimum Inhibitory Concentration, agar dilution, E. coli T-7; type: cell-based; conditions: Escherichia coli
Text: as §1

[14] = test system: P. morganii IFO 3168; experiment: Minimum Inhibitory Concentration, agar dilution, P. morganii IFO 3168; type: cell-based, Proteus morganii; conditions: Morganella morganii
Text: as §1

## N=c1scc(CC(=O)NC2C(=O)N3C(C(=O)[O-])=C(C[n+]4ccc(C(N)=O)cc4)CSC23)n1O (stereo not shown) [Example 10, 7-[2-(2-imino-3-hydroxy-4-thiazolin-4-yl)acetamido]-3-(4-carbamoylpyridinium)methyl-3-cephem-4-carboxylic acid betain]
[1]; IFO3988, P. vulgaris IFO 3988, agar dilution, read-out: Minimum Inhibitory Concentration
  MIC: 0.78 µg/mL (≈ 1.59 µM)
[2]; GN3835, K. pneumoniae GN 3835, agar dilution, read-out: Minimum Inhibitory Concentration
  MIC: 1.56 µg/mL (≈ 3.18 µM)
[3]
  ED50: 0.089 mg/kg
[4]; GN4359, P. mirabilis GN 4359, agar dilution, read-out: Minimum Inhibitory Concentration
  MIC: 0.78 µg/mL (≈ 1.59 µM)
[5]; P. rettgeri 8(TNO 336), read-out: Minimum Inhibitory Concentration
  MIC: ≤ 0.2 µg/mL
[6]; GN4733, P. rettgeri GN 4733, agar dilution, read-out: Minimum Inhibitory Concentration
  MIC: ≤ 0.2 µg/mL
[7]; GN99, Cit. freundii GN 99, agar dilution, read-out: Minimum Inhibitory Concentration
  MIC: 1.56 µg/mL (≈ 3.18 µM)
[8]; E. coli NIHJ, agar dilution
  MIC: 1.56 µg/mL (≈ 3.18 µM)
[9]; IFO12937, Ent. cloacae IFO 12937, agar dilution, read-out: Minimum Inhibitory Concentration
  MIC: 25 µg/mL (≈ 51 µM)
[10]
  MIC: 0.39 µg/mL (≈ 0.795 µM)
[11]; K. pneumoniae DT, agar dilution
  MIC: 0.78 µg/mL (≈ 1.59 µM)
[12]; GN1706, Cit. freundii GN 1706, agar dilution, read-out: Minimum Inhibitory Concentration
  MIC: 12.5 µg/mL (≈ 25.5 µM)
[13]; T7, E. coli T-7, agar dilution, read-out: Minimum Inhibitory Concentration
  MIC: 25 µg/mL (≈ 51 µM)
[14]; IFO3168, P. morganii IFO 3168, agar dilution, read-out: Minimum Inhibitory Concentration
  MIC: 3.13 µg/mL (≈ 6.38 µM)

## N=c1scc(CC(=O)NC2C(=O)N3C(C(=O)[O-])=C(COC(N)=O)CS[C@H]23)n1O.[Na+] (stereo partly shown) [Example 13, sodium 7-[2-(2-imino-3-hydroxy-4-thiazolin-4-yl)acetamido]-3-(carbamoyloxymethyl)-3-cephem-4-carboxylate]
[1]; IFO3988, read-out: Minimum Inhibitory Concentration
  MIC: 0.39 µg/mL
[2]; GN3835, read-out: Minimum Inhibitory Concentration
  MIC: 0.2 µg/mL
[3]
  ED50: 0.084 mg/kg
[4]; GN4359, read-out: Minimum Inhibitory Concentration
  MIC: 0.2 µg/mL
[5]; read-out: Minimum Inhibitory Concentration, P. rettgeri 8(TNO 336)
  MIC: ≤ 0.012 µg/mL
[6]; GN4733, read-out: Minimum Inhibitory Concentration
  MIC: 0.2 µg/mL
[7]; GN99, read-out: Minimum Inhibitory Concentration
  MIC: 0.78 µg/mL
[8]
  MIC: 0.2 µg/mL
[9]; IFO12937, read-out: Minimum Inhibitory Concentration
  MIC: 50 µg/mL
[10]
  MIC: 0.1 µg/mL
[11]
  MIC: 0.2 µg/mL
[12]; GN1706, read-out: Minimum Inhibitory Concentration
  MIC: 3.13 µg/mL
[13]; T7, read-out: Minimum Inhibitory Concentration
  MIC: 1.56 µg/mL
[14]; IFO3168, read-out: Minimum Inhibitory Concentration
  MIC: 0.78 µg/mL
